Experiments:
Format in all cases: in vivo
Scirpus juncoides = assay: Test Example 2: herbicidal activity, application during weed generation in submerged conditions (symbol B); details: Table 23; application herbicide amount 320 g/ha; grade 0-5 by criteria of Test Example 1
In short: (§1)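 Paddy pot test, submerged (4 cm water), alluvial soil, mixed sowing; greenhouse 25–30° C. Emulsion formulation diluted to predetermined rate, applied onto floodwater at 1–2 leaf stage. Visual herbicidal rating at 3 wk post-treatment.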

Apera spica-venti [1] = assay: Test Example 5: herbicidal effect by foliage application, plastic box (symbol L); details: 320 g/ha, 3 weeks after application
In short: (§2)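 After sowing into sterilized diluvial soil and growing two weeks under glass at 25° C. to 30° C., seedlings receive a uniform foliar spray of diluted emulsion. Damage is judged visually three weeks on.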

Stellaria media = assay: Test Example 5: herbicidal effect by foliage application, plastic box (symbol P); details: 320 g/ha, 3 weeks after application
In short: as §2

beet = assay: Test Example 4: effect on crop by soil treatment (symbol f); details: application herbicide amount 320 g/ha
In short: (§3)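 Seeds were sown in spots on sterilized diluvial soil in a plastic box and covered with about 1.5 cm of soil. Plants were then grown in a greenhouse at 25° C. to 30° C.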

Monochoria vaginalis = assay: Test Example 2: herbicidal activity, application during weed generation in submerged conditions (symbol C); details: Table 23; application herbicide amount 320 g/ha; grade 0-5 by criteria of Test Example 1
In short: as §1

transplanted rice plant = assay: Test Example 1: effect on crop, application before weed generation in submerged conditions (symbol a); details: application herbicide amount 320 g/ha
In short: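 Alluvial soil pots flooded to 4 cm water, sown with Echinochloa oryzacola, Scirpus juncoides and Monochoria vaginalis, then transplanted with 2.5 leaf stage rice seedlings; pre-emergence application. Greenhouse 25° C. to 30° C.; scored 0–5 by herbicidal ratio 3 weeks after application.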

[2] = tested on: directly sowed rice plant; assay: Test Example 3: effect on crop by foliage application, Wagner pot (symbol b); details: application herbicide amount 320 g/ha; for b (directly sowed rice plant) effect on crop grade: Table 24
In short: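 Greenhouse culture at 25–30 °C of seeded rice, Cyperus difformis, Leptochloa chinensis and Echinochloa crus-galli var. crus-galli, in alluvial soil held under 0.1–0.5 cm of water in a Wagner pot.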

Apera spica-venti [3] = assay: Test Example 4: herbicidal effect by soil treatment (symbol L); details: application herbicide amount 320 g/ha
In short: (§4)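 Seeds were sown in sterilized diluvial soil, covered with about 1.5 cm of soil, and the soil surface was sprayed with a water-diluted emulsion of the compound at a predetermined rate. Plants grew in a greenhouse at 25° C. to 30° C.; effects were scored visually 3 weeks after application.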

Leptochloa chinensis = assay: Test Example 3: herbicidal effect by foliage application, Wagner pot (symbol D); details: application herbicide amount 320 g/ha; for D (Leptochloa chinensis) herbicidal effect grade: Table 24
In short: (§5)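 Foliar spray of water-diluted emulsion formulation at a predetermined herbicide amount onto 14-day-old plants in flooded alluvial soil (water depth 0.1–0.5 cm), greenhouse 25–30 °C; rice sown alongside. Scored 3 wk post-application on set criteria.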

[4] = tested on: Echinochloa crus-galli var. crus-galli; assay: Test Example 4: herbicidal effect by soil treatment (symbol H); details: application herbicide amount 320 g/ha
In short: as §4

Abutilon theophrasti = assay: Test Example 5: herbicidal effect by foliage application, plastic box (symbol M); details: 320 g/ha, 3 weeks after application
In short: as §2

[5] = tested on: Echinochloa crus-galli var. crus-galli; assay: Test Example 3: herbicidal effect by foliage application, Wagner pot (symbol H); details: application herbicide amount 320 g/ha; for H (Echinochloa crus-galli var. crus-galli) herbicidal effect grade: Table 24
In short: as §5

rapeseed = assay: Test Example 4: effect on crop by soil treatment (symbol g); details: application herbicide amount 320 g/ha
In short: as §3

Chenopodium album [6] = assay: Test Example 5: herbicidal effect by foliage application, plastic box (symbol O); details: 320 g/ha, 3 weeks after application
In short: as §2

Cyperus difformis = assay: Test Example 3: herbicidal effect by foliage application, Wagner pot (symbol E); details: application herbicide amount 320 g/ha; for E herbicidal effect grade: Table 24
In short: as §5

Chenopodium album [7] = assay: Test Example 4: herbicidal effect by soil treatment (symbol O); details: application herbicide amount 320 g/ha
In short: as §4

Row | Structure (SMILES) | Herbicidal effect grade, B: Scirpus juncoides (Scirpus juncoides) | L: Apera spica-venti, herbicidal effect (criteria of Test Example 1) (Apera spica-venti [1]) | P: Stellaria media, herbicidal effect (criteria of Test Example 1) (Stellaria media) | Effect on crop grade, f: beet (beet) | Herbicidal effect grade, C: Monochoria vaginalis (Monochoria vaginalis) | Effect grade on crop, a: transplanted rice plant (transplanted rice plant) | effect on crop b (directly sowed rice plant), grade 0-5 [2] | Herbicidal effect grade, L: Apera spica-venti (Apera spica-venti [3]) | herbicidal effect on D (Leptochloa chinensis), grade 0-5 (Leptochloa chinensis) | Herbicidal effect grade, H: Echinochloa crus-galli var. crus-galli [4] | M: Abutilon theophrasti, herbicidal effect (criteria of Test Example 1) (Abutilon theophrasti) | herbicidal effect on H (Echinochloa crus-galli var. crus-galli), grade 0-5 [5] | Effect on crop grade, g: rapeseed (rapeseed) | O: Chenopodium album, herbicidal effect (criteria of Test Example 1) (Chenopodium album [6]) | herbicidal effect on E, grade 0-5 (Cyperus difformis) | b (directly sowed rice plant) effect on crop grade [2] | D (Leptochloa chinensis) herbicidal effect grade (Leptochloa chinensis) | H (Echinochloa crus-galli var. crus-galli) herbicidal effect grade [5] | E herbicidal effect grade (Cyperus difformis) | other results
1 | CC#Cc1cc(C)c(C2=C(O)CC(CC(C)=O)C2=O)c(C)c1 (stereo not drawn) [7-010] | 5 (Herbicidal ratio of 90% or more (almost completely withered)) | 5 (Herbicidal ratio of 90% or more (almost completely withered)) | 0 (Herbicidal ratio of 5% or lower (almost no effect)) | 0 (Herbicidal ratio of 5% or lower (almost no effect)) | 1 (Herbicidal ratio of 5% or higher and lower than 20%) | 5 (Herbicidal ratio of 90% or more (almost completely withered)) | 5 (Herbicidal ratio of 90% or more (almost completely withered)) | 5 (Herbicidal ratio of 90% or more (almost completely withered)) | 5 (Herbicidal ratio of 90% or more (almost completely withered)) | 5 (Herbicidal ratio of 90% or more (almost completely withered)) | 3 (Herbicidal ratio of 40% or higher and lower than 70%) | 5 (Herbicidal ratio of 90% or more (almost completely withered)) | 3 (Herbicidal ratio of 40% or higher and lower than 70%) | 2 (Herbicidal ratio of 20% or higher and lower than 40%) | 5 (Herbicidal ratio of 90% or more (almost completely withered)) | – | – | – | – | –
2 | CC(=O)CC1CC(O)=C(c2c(C)cc(C)cc2Br)C1=O (stereo not drawn) [7-011] | 2 (Herbicidal ratio of 20% or higher and lower than 40%) | 3 (Herbicidal ratio of 40% or higher and lower than 70%) | 3 (Herbicidal ratio of 40% or higher and lower than 70%) | 0 (Herbicidal ratio of 5% or lower (almost no effect)) | 0 (Herbicidal ratio of 5% or lower (almost no effect)) | 1 (Herbicidal ratio of 5% or higher and lower than 20%) | 5 (Herbicidal ratio of 90% or more (almost completely withered)) | 3 (Herbicidal ratio of 40% or higher and lower than 70%) | 4 (Herbicidal ratio of 70% or higher and lower than 90%) | 4 (Herbicidal ratio of 70% or higher and lower than 90%) | 4 (Herbicidal ratio of 70% or higher and lower than 90%) | 5 (Herbicidal ratio of 90% or more (almost completely withered)) | 4 (Herbicidal ratio of 70% or higher and lower than 90%) | 3 (Herbicidal ratio of 40% or higher and lower than 70%) | 5 (Herbicidal ratio of 90% or more (almost completely withered)) | – | – | – | – | –
3 | CC(=O)CC1CC(O)=C(c2c(C)cc(OCC(F)(F)F)cc2C)C1=O (stereo not drawn) [7-015] | 0 (Herbicidal ratio of 5% or lower (almost no effect)) | 5 (Herbicidal ratio of 90% or more (almost completely withered)) | 1 (Herbicidal ratio of 5% or higher and lower than 20%) | 0 (Herbicidal ratio of 5% or lower (almost no effect)) | 0 (Herbicidal ratio of 5% or lower (almost no effect)) | 5 (Herbicidal ratio of 90% or more (almost completely withered)) | 5 (Herbicidal ratio of 90% or more (almost completely withered)) | 4 (Herbicidal ratio of 70% or higher and lower than 90%) | 5 (Herbicidal ratio of 90% or more (almost completely withered)) | 5 (Herbicidal ratio of 90% or more (almost completely withered)) | 2 (Herbicidal ratio of 20% or higher and lower than 40%) | 5 (Herbicidal ratio of 90% or more (almost completely withered)) | 2 (Herbicidal ratio of 20% or higher and lower than 40%) | 3 (Herbicidal ratio of 40% or higher and lower than 70%) | 5 (Herbicidal ratio of 90% or more (almost completely withered)) | – | – | – | – | –
4 | COc1cc(Br)cc(F)c1C1=C(O)CC(CC(C)=O)C1=O (stereo not drawn) [7-029] | – | 3 (Herbicidal ratio of 40% or higher and lower than 70%) | 0 (Herbicidal ratio of 5% or lower (almost no effect)) | 0 (Herbicidal ratio of 5% or lower (almost no effect)) | – | 0 (Herbicidal ratio of 5% or lower (almost no effect)) | – | – | – | 2 (Herbicidal ratio of 20% or higher and lower than 40%) | – | – | 0 (Herbicidal ratio of 5% or lower (almost no effect)) | 0 (Herbicidal ratio of 5% or lower (almost no effect)) | – | 0 (Herbicidal ratio of 5% or lower (almost no effect)) | 4 (Herbicidal ratio of 70% or higher and lower than 90%) | 3 (Herbicidal ratio of 40% or higher and lower than 70%) | 0 (Herbicidal ratio of 5% or lower (almost no effect)) | Herbicidal effect grade, O: Chenopodium album (Chenopodium album [7]): 0 (Herbicidal ratio of 5% or lower (almost no effect))
5 | CON=C(C)C(=O)C1CC(O)=C(c2c(C)cc(C)cc2C)C1=O (stereo not drawn) [8-002] | 0 (Herbicidal ratio of 5% or lower (almost no effect)) | – | – | 0 (Herbicidal ratio of 5% or lower (almost no effect)) | 0 (Herbicidal ratio of 5% or lower (almost no effect)) | 0 (Herbicidal ratio of 5% or lower (almost no effect)) | – | 0 (Herbicidal ratio of 5% or lower (almost no effect)) | – | 2 (Herbicidal ratio of 20% or higher and lower than 40%) | – | – | 0 (Herbicidal ratio of 5% or lower (almost no effect)) | – | – | 0 (Herbicidal ratio of 5% or lower (almost no effect)) | 0 (Herbicidal ratio of 5% or lower (almost no effect)) | 0 (Herbicidal ratio of 5% or lower (almost no effect)) | 0 (Herbicidal ratio of 5% or lower (almost no effect)) | L: Apera spica-venti, herbicidal effect grade (Apera spica-venti [1]): 3 (Herbicidal ratio of 40% or higher and lower than 70%); P: Stellaria media, herbicidal effect grade (Stellaria media): 0 (Herbicidal ratio of 5% or lower (almost no effect)); M: Abutilon theophrasti, herbicidal effect grade (Abutilon theophrasti): 0 (Herbicidal ratio of 5% or lower (almost no effect)); O: Chenopodium album, herbicidal effect grade (Chenopodium album [6]): 0 (Herbicidal ratio of 5% or lower (almost no effect))

Reference: patent US11000033B2, “Ketone or oxime compound, and herbicide” (NISSAN CHEMICAL CORPORATION, priority 2014, dated 2021)
